Test results from patent publication US20230047825A1, “ANTIMICROBIAL PEPTIDES” (priority 2019, published 2023).
Converted amounts (≈) assume the structure as drawn. Like-named read-outs stand apart in the source and are kept apart here. Where a SMILES comes first, the peptide text is derived from it.

Legend:
five S. aureus strains = conditions: Mueller Hinton Broth
Protocol: (§1) Two broth mediums were used, Mueller Hinton Broth and RPMI 1640+5% fetal bovine serum. Test substances were evaluated in 11-point titrations and performed in duplicate.
(§2) The direct colony suspension method was used to prepare inoculated broth. Isolated colonies were taken from an 18-24 h culture plate. Optical density measurements (OD620nm) were used to estimate the bacterial density. […] The stock solutions were diluted by 2-fold serial titrations with their respective vehicles for a total of 11 concentrations.
(§3) A 4 μL aliquot of each dilution was added to 196 μL of broth medium seeded with the organism in wells of a sterilized 96 well polypropylene plate (Nunc™ 249949) using aluminum foil as cover. The final bacterial count was 2 to 8×10^5 CFU/mL. […] The final test article concentration range was 32 to 0.0313 μg/mL.
(§4) Each test substance dilution was evaluated in duplicate on one test occasion. […] Plates were incubated at 35-37° C. for 18 h. The test plates were visually examined and each well was visually scored for growth or complete inhibition of growth. The MIC value was recorded.

Calu-3 = assay: Cytotoxicity assay; format: cell-based; conditions: value printed in parentheses
Klebsiella pneumoniae M6 = format: cell-based
[1] = test system: Staphylococcus aureus ATCC 33591 (MRSA); assay: microbe, parasite or virus in culture; conditions: ATCC 33591
Protocol: (§5) The S. aureus strains ATCC 29213, ATCC 19636, ATCC 33591 (MRSA), BAA-1556 (MRSA USA 300) were obtained from the American Type Culture Collection (ATCC). […] The species identity was confirmed with 16S rRNA analysis.
as §1, §2, §3, §4

[2] = test system: Staphylococcus aureus ATCC 19636 (Smith); assay: microbe, parasite or virus in culture; conditions: ATCC 19636
Protocol: as §5, §1, §2, §3, §4

[3] = test system: Staphylococcus aureus ATCC 29213; assay: microbe, parasite or virus in culture; conditions: ATCC 29213
Protocol: as §5, §1, §2, §3, §4

[4] = test system: Staphylococcus aureus ATCC BAA-1556 (USA300, MRSA); assay: microbe, parasite or virus in culture; conditions: ATCC BAA-1556
Protocol: as §5, §1, §2, §3, §4

P. aeruginosa RP73 = assay: Antibacterial activity assay (broth microdilution MIC); format: cell-based, Pseudomonas aeruginosa; conditions: in µg/mL
Protocol: Antibacterial activity assay.
Synergy experiments were performed following a checkerboard protocol.

[5] = test system: Acinetobacter baumannii ATCC 17978; format: cell-based; conditions: in µg/mL; for MIC, Stability in serum (MH): Ab17978
A549 = assay: Cytotoxicity assay; format: cell-based; conditions: value printed in parentheses
[6] = test system: panel of Gram-negative or Gram-positive pathogens; conditions: RPMI (5% FCS); Gram-negative isolates, all but the P. aeruginosa isolates
Protocol: MICs were determined on the same plates as the FICs to increase reproducibility.
Methods: The natural AMP (termed AMP1) was modified to produce synthetic variants, AMPs 1a, 2a, 2b, 3a and 3b. Minimum inhibitory concentrations (MICs) were determined using the microbroth dilution assay with Mueller Hinton broth (MHB) or RPMI (with 5% FBS) and stability in serum was tested by conducting MICs in MHB containing 10% FBS. Synergy experiments were performed following a checkerboard protocol. Cytotoxicity was tested against HEK293 and HeLa immortalised human cell-lines using the XTT viability stain and by quantifying haemolysis of human red blood cells. Patch clamp analysis was performed using the Port-a-Patch® automated patch-clamp system on DPhPE/DPhPG (model for a Gram-negative plasma membrane) or DPhPG (Gram-positive) model membranes challenged with peptide. The murine lung infection model was performed using the agar bead model with Staphylococcus aureus strain NCTC 13616 (EMRSA-15).

[7] = test system: Escherichia coli NCTC 12923; format: cell-based; conditions: EC12923
[8] = medium and unit not given, in µg/mL
[9] = untitled table, medium/unit not given, values match RPMI of Table 2, in µg/mL

CC(C)C[C@@H](NC(=O)[C@@H](Cc1ccc(O)cc1)NC(=O)[C@@H](Cc1c[nH]cn1)NC(=O)[C@H](NC(=O)[C@@H](CC(C)C)NC(=O)[C@@H](C)NC(=O)[C@@H](C)NC(=O)[C@@H](CCCNC(=N)N)NC(=O)CNC(=O)[C@H](NC(=O)[C@@H](Cc1c[nH]cn1)NC(=O)[C@@H](CCCNC(=N)N)NC(=O)CNC(=O)[C@H](NC(=O)[C@@H](Cc1c[nH]cn1)NC(=O)[C@@H](C)NC(=O)[C@@H](C)NC(=O)[C@@H](CCCNC(=N)N)NC(=O)[C@@H](CCCNC(=N)N)NC(=O)[C@@H](Cc1ccccc1)NC(=O)[C@@H](Cc1ccccc1)NC(=O)[C@@H](CO)NC(=O)CNC(=O)[C@@H](Cc1c[nH]c2ccccc12)NC(=O)CN)C(C)C)C(C)C)[C@H](C)O)C(N)=O [D-pleurocidin-KR] (HELM PEPTIDE1{G.[dW].G.[dS].[dF].[dF].[dR].[dR].[dA].[dA].[dH].[dV].G.[dR].[dH].[dV].G.[dR].[dA].[dA].[dL].[dT].[dH].[dY].[dL].[am]}$$$$V2.0; N-terminus assumed)
MIC against the five tested S. aureus strains (five S. aureus strains): 2 µg/mL (≈ 0.709 µM) | Toxicity Calu-3 (EC50), Peptide concentration (Calu-3): (39.1 ± 1.8) μg/ml | MIC, Stability in serum (MH) (Klebsiella pneumoniae M6; No serum): 2 µg/mL (≈ 0.709 µM) | MIC, Stability in serum (MH) (Klebsiella pneumoniae M6; Serum (10% fetal bovine serum)): 0.5 µg/mL (≈ 0.177 µM) | MIC on initial panels (Klebsiella pneumoniae M6; [8]): 2 | MIC (Klebsiella pneumoniae M6; [9]): 4 | MIC [1]: 2 µg/mL (≈ 0.709 µM) | MIC [2]: 2 µg/mL (≈ 0.709 µM) | MIC [3]: 2 µg/mL (≈ 0.709 µM) | MIC [4]: 2 µg/mL (≈ 0.709 µM) | MIC on initial panels (P. aeruginosa RP73; medium and unit not given): 16 | MIC (P. aeruginosa RP73; untitled table, medium/unit not given): 33 | MIC on initial panels ([5]; AB17978, medium and unit not given): 2 | MIC ([5]; AB17978, untitled table, medium/unit not given, values match RPMI of Table 2): 4 | MIC, Stability in serum (MH) ([5]; No serum): 2 | MIC, Stability in serum (MH) ([5]; Serum (10% fetal bovine serum)): 0.5 | Toxicity A549 (EC50), Peptide concentration (A549): (56.5 ± 4.5) μg/ml | effective concentration (MIC) in RPMI [6]: ≤ 4 µg/mL | MIC, Stability in serum (MH) ([7]; No serum): 1 µg/mL (≈ 0.354 µM) | MIC, Stability in serum (MH) ([7]; Serum (10% fetal bovine serum)): 0.25 µg/mL (≈ 0.0886 µM) | MIC on initial panels [7, 8]: 1 | MIC [7, 9]: 2
